Data as given in PubChem BioAssay AID328 (DTP/NCI, 2004).
Values joined by “and” are separate entries in the source; they are usually repeats but may differ in a detail not shown here. Equal values may be shown once. Inconclusive results and toxic doses are left out. The calls were made as follows: active = survival T/C of 150% or more; inactive = T/C below 125% in these data.

System: BDF1 mice, P388 leukemia ip, median survival T/C
Assay: NCI In Vivo Anticancer Drug Screen. Data for tumor model P388 Leukemia (intraperitoneal) in B6D2F1 (BDF1) mice
Conditions: endpoint: median survival time, higher = longer survival
Method in brief: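 Each value expresses how treatment altered survival: treated-mouse outcome over vehicle-mouse outcome, both groups bearing the transplanted tumour.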

[1] = dose: 10.0 mg/kg/injection, schedule: Q01DX009 (ip), vehicle: saline
[2] = dose: 50.0 mg/kg/injection, schedule: Q01DX009 (ip), vehicle: saline with Tween-80
[3] = dose: 100.0 mg/kg/injection, schedule: Q01DX009 (ip), vehicle: saline with Tween-80
[4] = dose: 200.0 mg/kg/injection, schedule: Q01DX009 (ip), vehicle: saline with Tween-80
[5] = dose: 50.0 mg/kg/injection, schedule: Q04DX003 (ip), vehicle: saline with Tween-80
[6] = dose: 200.0 mg/kg/injection, schedule: Q04DX003 (ip), vehicle: saline with Tween-80
[7] = dose: 50.0 mg/kg/injection, schedule: Q01DX009 (ip), vehicle: Klucel (hydroxypropylcellulose) (HPC)

Measured: T/C

O=CC(NC(=O)N(CCCl)N=O)C(O)C(O)C(O)CO (stereo unspecified)
active: dose: 1.3 mg/kg/injection, schedule: Q01DX009 (ip), vehicle: saline 157 % of control | dose: 2.0 mg/kg/injection, schedule: Q01DX009 (ip), vehicle: saline 198 % of control | dose: 3.0 mg/kg/injection, schedule: Q01DX009 (ip), vehicle: saline 230 % of control | dose: 4.5 mg/kg/injection, schedule: Q01DX009 (ip), vehicle: saline 238 % of control | dose: 6.48 mg/kg/injection, schedule: Q04DX003 (ip), vehicle: saline 250 % of control | dose: 6.7 mg/kg/injection, schedule: Q01DX009 (ip), vehicle: saline 238 % of control | dose: 6.8 mg/kg/injection, schedule: Q01DX009 (ip), vehicle: saline 169 % of control | [1] 203 % of control | dose: 10.8 mg/kg/injection, schedule: Q04DX003 (ip), vehicle: saline 514 % of control | dose: 13.0 mg/kg/injection, schedule: Q01DX001 (ip), vehicle: saline 238 % of control and 211 % of control | dose: 18.0 mg/kg/injection, schedule: Q04DX003 (ip), vehicle: saline 262 % of control | dose: 20.0 mg/kg/injection, schedule: Q01DX001 (ip), vehicle: saline 237 % of control and 203 % of control | dose: 45.0 mg/kg/injection, schedule: Q01DX001 (ip), vehicle: saline 254 % of control
253 % of control and 95 % of control: dose: 30.0 mg/kg/injection, schedule: Q01DX001 (ip), vehicle: saline

CC[C@](C)(O)C(=O)O[C@H]1C(=O)O[C@@H]2C[C@H]3C(C)=CC(=O)[C@@H](O)[C@]3(C)[C@H]3[C@@]4(O)OC[C@]32[C@@H]1[C@@H](C)[C@H]4O
inactive: dose: 0.06 mg/kg/injection, schedule: Q01DX009 (ip), vehicle: saline with Tween-80 100 % of control | dose: 0.07 mg/kg/injection, schedule: Q01DX010 (ip), vehicle: saline 105 % of control | dose: 0.12 mg/kg/injection, schedule: Q01DX009 (ip), vehicle: saline with Tween-80 100 % of control | dose: 0.12 mg/kg/injection, schedule: Q01DX009 (ip), vehicle: saline 100 % of control | dose: 0.15 mg/kg/injection, schedule: Q01DX010 (ip), vehicle: saline 95 % of control | dose: 0.2 mg/kg/injection, schedule: Q01DX010 (ip), vehicle: saline 100 % of control | dose: 0.25 mg/kg/injection, schedule: Q01DX009 (ip), vehicle: saline 108 % of control | dose: 0.3 mg/kg/injection, schedule: Q01DX010 (ip), vehicle: saline 109 % of control and 110 % of control | dose: 0.44 mg/kg/injection, schedule: Q01DX010 (ip), vehicle: saline 104 % of control | dose: 0.5 mg/kg/injection, schedule: Q01DX009 (ip), vehicle: saline 104 % of control | dose: 0.66 mg/kg/injection, schedule: Q01DX010 (ip), vehicle: saline 122 % of control | dose: 1.0 mg/kg/injection, schedule: Q01DX009 (ip), vehicle: saline + alcohol 87 % of control
active: dose: 0.25 mg/kg/injection, schedule: Q01DX010 (ip), vehicle: steriod suspending solution 177 % of control | dose: 0.5 mg/kg/injection, schedule: Q01DX010 (ip), vehicle: steriod suspending solution 231 % of control | dose: 0.51 mg/kg/injection, schedule: Q01DX009 (ip), vehicle: saline with Tween-80 161 % of control | dose: 0.6 mg/kg/injection, schedule: Q01DX010 (ip), vehicle: saline 150 % of control | dose: 0.64 mg/kg/injection, schedule: Q01DX009 (ip), vehicle: saline with Tween-80 171 % of control

Cc1onc(-c2ccccc2)c1NC(=O)OC(C)c1cccnc1 (stereo unspecified)
inactive: [2] 103 % of control | [3] 108 % of control | [4] 119 % of control

NC(=O)c1cc(OCc2ccccc2)nc2nc(Cl)nc(N)c12
inactive: [2] 100 % of control | [3] 96 % of control | [4] 110 % of control

CCOC(=O)c1c(NC(=O)CCl)ssc1=S
inactive: dose: 0.78 mg/kg/injection, schedule: Q01DX009 (ip), vehicle: saline with Tween-80 116 % of control | dose: 1.56 mg/kg/injection, schedule: Q01DX009 (ip), vehicle: saline with Tween-80 116 % of control | dose: 3.12 mg/kg/injection, schedule: Q01DX009 (ip), vehicle: saline with Tween-80 116 % of control | dose: 6.25 mg/kg/injection, schedule: Q01DX009 (ip), vehicle: saline with Tween-80 116 % of control | dose: 12.5 mg/kg/injection, schedule: Q01DX009 (ip), vehicle: saline with Tween-80 114 % of control | dose: 25.0 mg/kg/injection, schedule: Q01DX009 (ip), vehicle: saline with Tween-80 109 % of control | [2] 111 % of control | [5] 102 % of control | [6] 100 % of control | dose: 400.0 mg/kg/injection, schedule: Q04DX003 (ip), vehicle: saline with Tween-80 116 % of control

Nc1ccc(C(=O)O)cc1S(=O)(=O)c1cc(C(=O)O)ccc1N
inactive: [7] 88 % of control | dose: 100.0 mg/kg/injection, schedule: Q01DX009 (ip), vehicle: Klucel (hydroxypropylcellulose) (HPC) 91 % of control

CC(=O)N(C)Nc1ccccc1
inactive: [5] 100 % of control | dose: 100.0 mg/kg/injection, schedule: Q04DX003 (ip), vehicle: saline with Tween-80 90 % of control and 100 % of control | [6] 105 % of control

C=C1C(=O)OC2/C=C(\C)C3(O)C=CC(C)(CC(OC(=O)C(C)C)C12)O3 (stereo unspecified)
active: dose: 12.5 mg/kg/injection, schedule: Q01DX009 (ip), vehicle: other 161 % of control | dose: 25.0 mg/kg/injection, schedule: Q01DX009 (ip), vehicle: other 155 % of control | dose: 50.0 mg/kg/injection, schedule: Q01DX009 (ip), vehicle: other 161 % of control
inactive: [1] 103 % of control | dose: 40.0 mg/kg/injection, schedule: Q01DX009 (ip), vehicle: saline 100 % of control

COc1cc2c(cc1OC)C(C#N)N(C(=O)c1ccccc1)C=C2 (stereo unspecified)
inactive: dose: 25.0 mg/kg/injection, schedule: Q04DX003 (ip), vehicle: water 114 % of control | dose: 50.0 mg/kg/injection, schedule: Q04DX003 (ip), vehicle: water 99 % of control | dose: 100.0 mg/kg/injection, schedule: Q04DX003 (ip), vehicle: water 94 % of control | dose: 200.0 mg/kg/injection, schedule: Q04DX003 (ip), vehicle: water 94 % of control | dose: 400.0 mg/kg/injection, schedule: Q04DX003 (ip), vehicle: water 112 % of control

ClCC[N-]CC[N-]CCCl.ClCC[N-]CC[N-]CCCl.[O-][Cl+3]([O-])([O-])O.[Zn+2]
inactive: dose: 2.5 mg/kg/injection, schedule: Q04DX003 (ip), vehicle: Klucel (hydroxypropylcellulose) (HPC) 105 % of control | dose: 5.0 mg/kg/injection, schedule: Q03DX003 (ip), vehicle: saline 110 % of control | dose: 5.0 mg/kg/injection, schedule: Q04DX003 (ip), vehicle: Klucel (hydroxypropylcellulose) (HPC) 112 % of control | dose: 10.0 mg/kg/injection, schedule: Q04DX003 (ip), vehicle: Klucel (hydroxypropylcellulose) (HPC) 108 % of control | dose: 20.0 mg/kg/injection, schedule: Q04DX003 (ip), vehicle: Klucel (hydroxypropylcellulose) (HPC) 124 % of control | dose: 40.0 mg/kg/injection, schedule: Q03DX003 (ip), vehicle: saline 75 % of control | dose: 80.0 mg/kg/injection, schedule: Q03DX003 (ip), vehicle: saline 33 % of control
active: dose: 40.0 mg/kg/injection, schedule: Q04DX003 (ip), vehicle: Klucel (hydroxypropylcellulose) (HPC) 154 % of control

C[N+](C)(C)CC(O)CC#N (stereo unspecified)
inactive: dose: 12.5 mg/kg/injection, schedule: Q01DX009 (ip), vehicle: Klucel (hydroxypropylcellulose) (HPC) 100 % of control | dose: 25.0 mg/kg/injection, schedule: Q01DX009 (ip), vehicle: Klucel (hydroxypropylcellulose) (HPC) 100 % of control | [7] 90 % of control

CCCCOc1ccc(C(=O)N/N=C(\C)[C@]2(O)Cc3c(O)c4c(c(O)c3[C@@H](OC3CC(N)C(O)C(C)O3)C2)C(=O)c2c(OC)cccc2C4=O)cc1 (stereo partly specified)
active: dose: 1.0 mg/kg/injection, schedule: Q01DX009 (ip), vehicle: water 173 % of control | dose: 2.0 mg/kg/injection, schedule: Q01DX009 (ip), vehicle: water 157 % of control and 173 % of control | dose: 4.0 mg/kg/injection, schedule: Q01DX009 (ip), vehicle: water 169 % of control

O=C1C=C(Nc2ccc(F)cc2)C(Nc2ccc(F)cc2)=CC1=O
inactive: dose: 87.5 mg/kg/injection, schedule: Q01DX009 (ip), vehicle: saline with Tween-80 87 % of control | dose: 350.0 mg/kg/injection, schedule: Q01DX009 (ip), vehicle: saline with Tween-80 91 % of control

CN(Cc1cnc2nc(N)nc(N)c2n1)c1ccc(C(=O)NC(CCC(=O)O)C(=O)O)cc1Br (stereo unspecified)
active: dose: 0.35 mg/kg/injection, schedule: Q01DX009 (ip), vehicle: saline 231 % of control | dose: 0.7 mg/kg/injection, schedule: Q01DX009 (ip), vehicle: saline 259 % of control | dose: 13.2 mg/kg/injection, schedule: Q04DX003 (ip), vehicle: saline with Tween-80 250 % of control
